In patent US8586593B2, “Insecticidal compounds” (Syngenta Crop Protection, Inc., priority 2009, dated 2013):

What was measured:
Assay type in all cases: in vivo
Diabrotica balteata = Diabrotica balteata (corn root worm) larval test on artificial diet; settings: 120 h, 200 ppm (concentration in well 18 ppm), L2 larvae, larval mortality and growth regulation after 5 days
Experimental: A 24-well microtiter plate (MTP) with artificial diet was treated with test solutions at an application rate of 200 ppm (concentration in well 18 ppm) by pipetting. After drying, the MTP's were infested with larvae (L2) (6-10 per well). After an incubation period of 5 days, samples were checked for larval mortality, and growth regulation.

Spodoptera littoralis = Spodoptera littoralis (Egyptian cotton leafworm) leaf disc spray test; settings: foliar, 72 h, 200 ppm sprayed on cotton leaf discs, 5 L1 larvae, mortality, feeding behavior and growth regulation 3 days after treatment
Description: Spodoptera littoralis (Egyptian Cotton Leafworm)
Cotton leaf discs were placed on agar in a 24-well microtiter plate and sprayed with test solutions at an application rate of 200 ppm. After drying, the leaf discs were infested with 5 L1 larvae. The samples were checked for mortality, feeding behavior, and growth regulation 3 days after treatment (DAT).

Heliothis virescens = Heliothis virescens (tobacco budworm) egg test on artificial diet; settings: 96 h, 200 ppm (concentration in well 18 ppm), eggs 0-24 h old on artificial diet, egg mortality, larval mortality and growth regulation after 4 days
Experimental: Eggs (0-24 h old) were placed in 24-well microtiter plate on artificial diet and treated with test solutions at an application rate of 200 ppm (concentration in well 18 ppm) by pipetting. After an incubation period of 4 days, samples were checked for egg mortality, larval mortality, and growth regulation.

Plutella xylostella = Plutella xylostella (diamond back moth) larval test on artificial diet; settings: 144 h, 200 ppm (concentration in well 18 ppm), L2 larvae, larval mortality and growth regulation after 6 days
Experimental: 24-well microtiter plate (MTP) with artificial diet was treated with test solutions at an application rate of 200 ppm (concentration in well 18 ppm) by pipetting. After drying, the MTP's were infested with L2 larvae (7-12 per well). After an incubation period of 6 days, samples were checked for larval mortality and growth regulation.

Measured: pest or weed control at 200 ppm

O=C(Nc1ccc(C(F)(F)F)cc1C1CCN(Cc2ccc(-c3ncc(F)cn3)cc2)CC1)c1ccnc(Cl)c1 [Compound A2, 2-chloro-N-(2-{1-[4-(5-fluoro-pyrimidin-2-yl)-benzyl]-piperidin-4-yl}-4-trifluoromethyl-phenyl)-isonicotinamide]
≥ 80%: all assays above

O=C(Nc1ccc(F)cc1C1CCN(Cc2ccc(-c3ncc(Cl)cn3)cc2)CC1)c1ccnc(Cl)c1 [Compound A10, 2-chloro-N-(2-{1-[4-(5-chloro-pyrimidin-2-yl)-benzyl]-piperidin-4-yl}-4-fluoro-phenyl)-isonicotinamide]
≥ 80%: all assays above

O=C(Nc1cc(OC(F)(F)F)ccc1C1CCN(Cc2ccc(-c3ncc(Cl)cn3)cc2)CC1)c1ccnc(Cl)c1 [Compound A12, 2-chloro-N-(2-{1-[4-(5-chloro-pyrimidin-2-yl)-benzyl]-piperidin-4-yl}-5-trifluoromethoxy-phenyl)-isonicotinamide]
≥ 80%: all assays above

O=C(Nc1ccc(C(F)(F)F)nc1C1CCN(Cc2ccc(-c3ncc(Cl)cn3)cc2)CC1)c1ccnc(Cl)c1 [Compound B1, 2-chloro-N-{1′-[4-(5-chloro-pyrimidin-2-yl)-benzyl]-6-trifluoromethyl-1′,2′,3′,4′,5′,6′-hexahydro-[2,4′]bipyridinyl-3-yl}-isonicotinamide]
≥ 80%: all assays above

O=C(Nc1ccc(C(F)(F)F)nc1C1CCN(Cc2ccc(-c3ncc(F)cn3)cc2)CC1)c1ccnc(Cl)c1 [Compound B2, 2-chloro-N-{1′-[4-(5-fluoro-pyrimidin-2-yl)-benzyl]-6-trifluoromethyl-1′,2′,3′,4′,5′,6′-hexahydro-[2,4′]bipyridinyl-3-yl}-isonicotinamide]
≥ 80%: all assays above

O=C(Nc1ccc(OC(F)F)nc1C1CCN(Cc2ccc(-c3ncc(Cl)cn3)cc2)CC1)c1ccnc(Cl)c1 [Compound B6, 2-chloro-N-{1′-[4-(5-chloro-pyrimidin-2-yl)-benzyl]-6-difluoromethoxy-1′,2′,3′,4′,5′,6′-hexahydro-[2,4′]bipyridinyl-3-yl}-isonicotinamide]
≥ 80%: all assays above

O=C(Nc1c(F)cc(C(F)(F)F)nc1C1CCN(Cc2ccc(-c3ncc(Cl)cn3)cc2)CC1)c1ccnc(Cl)c1 [Compound B7, 2-chloro-N-{1′-[4-(5-chloro-pyrimidin-2-yl)-benzyl]-4-fluoro-6-trifluoromethyl-1′,2′,3′,4′,5′,6′-hexahydro-[2,4′]bipyridinyl-3-yl}-isonicotinamide]
≥ 80%: all assays above

O=C(Nc1ccc(C(F)(F)F)cc1C1CC[N+]([O-])(Cc2ccc(-c3ncc(Cl)cn3)cc2)CC1)c1ccnc(Cl)c1 (stereo not drawn) [Compound C1, 2-chloro-N-(2-{1-[4-(5-chloro-pyrimidin-2-yl)-benzyl]-1-oxy-piperidin-4-yl}-4-trifluoromethyl-phenyl)-isonicotinamide]
≥ 80%: all assays above

O=C(Nc1ccc(C(F)(F)F)cc1C1CCN(Cc2ccc(-c3ncc(Cl)cn3)cc2)CC1)c1ccnc(Cl)c1 [Compound E1, 2-chloro-N-(2-{1-[4-(5-chloro-pyrimidin-2-yl)-benzyl]-piperidin-4-yl}-4-trifluoromethyl-phenyl)-isonicotinamide acetate]
≥ 80%: Plutella xylostella

O=C(Nc1ccc(C(F)(F)F)cc1C1CCN(Cc2ccc(-c3ncc(Cl)cn3)cc2)CC1)c1ccnc(Cl)c1 [Compound E8]
≥ 80%: Diabrotica balteata | Spodoptera littoralis | Heliothis virescens
